Experimental data taken from US7022737B2, “Manipulating nitrosative stress to kill pathologic microbes, pathologic helminths and pathologically proliferating cells or to upregulate nitrosative stress defenses” (Duke University, priority 1996, dated 2006).
Counter-ions that a name gives are not always drawn.

Legend:
Salmonella = experiment: Patients with Salmonella septicemia or gastroenteritis; type: in vivo; conditions: septicemia; sodium nitrate 200 mg/kg i.v. twice a day and ethacrynic acid 50 mg four times a day p.o.
[1] = test system: wild type E. coli and glutathione deficient E. coli; experiment: Bacterial growth (O.D. 600 nm) with nitrosating agent; type: cell-based
Protocol: In a first experiment, six runs were carried out. In three of the runs, wild type E. coli were incubated in bacterial growth medium. In the other three runs, E. coli lacking a gene essential for glutathione production (in particular, lacking a gene expressing gamma-glutamylcysteine synthetase, hereinafter glutathione deficient E. coli) were incubated in the bacterial growth medium. In one run, for each of the wild type E. coli and the glutathione deficient E. coli, no nitrosating agent was employed. In one run, for each of the wild type E. coli and the glutathione deficient E. coli, 0.5 mM S-nitrosocysteine (a nitrosating agent) was added after two hours. In one run, for each of the wild type E. coli and the glutathione deficient E. coli, 0.2 mM S-nitrosocysteine was added initially and 0.5 mM S-nitrosocysteine was added at the two hour mark. In each run, starting at the two hour mark and every 15 or 30 minutes thereafter, bacterial cell density (i.e., growth) was measured. […]
In a second experiment, six runs were carried out the same as in the first experiment. In this case, the results are shown in FIG. 2 where bacterial growth (measured as optical density (O.D.) 600 nm) is plotted on a log axis versus time (after two hours) and where “wt” and the plus and minus sign mean the same as in FIG. 1 and “gsh^−” means glutathione deficient E. coli. […]

E. coli = experiment: Patients with E. coli septicemia; type: in vivo
Protocol: A person with fever, mild hypotension, and moderate hematuria has blood and urine cultures that are positive for E. coli. They are given a diagnosis of E. coli septicemia and urinary tract infection. […]
A person with E. coli sepsis presents feeling nauseated and gravely ill. However, their blood pressure is stable. They receive a standard regimen of IV antibiotics, including ampicillin and gentamicin as well as the siderophore ferrioxamine B at a dose of 10 mg/kg.
A person with E. coli sepsis presents with a blood pressure of 80/50 mm Hg. Broad spectrum antibiotics are initiated including ampicillin and gentamicin. […] The patient then receives an intravenous dose of nitrosated chloramphenicol, 12.5 mg four times/day IV together with methylene blue IV at a dose of 5 mg/kg as well as fluid support.

[2] = test system: benign prostatic hypertrophy; experiment: Patients with benign prostatic hypertrophy; type: in vivo; conditions: prostate-implanted polymer pellets releasing each agent at 1 μmol/hr
Excerpt: A person presents with a history of urinary hesitancy and multiple awakenings during the night. They are given a diagnosis of benign prostatic hypertrophy. Under stereotactic guidance, the patient's enlarged prostate gland is implanted with several porus polymer pellets designed to slowly release L-buthionine-S-sulfoximine (1 μmol/hr) and S-nitrosocysteine (1 μmol/hr). […] They then have nearly normal urine flow and usually wakes no more than once per night.
A similar patient with benign prostatic hypertrophy and very marked enlargement of their prostate is treated with NO-substituted finasteride (NO-substituted Proscar; 5 mg/day). NO-substitution is accomplished by replacement of the tert-butyl amine moiety of finasteride with S-nitroso-β-thio-tert-butyl amine.
A person with benign prostatic hypertrophy is treated with Finisteride (Proscar: 5 mg/day) and oral buthionine-S-sulfoximine at a dose of 10 mmol/kg four time/day.

restenosis [3] = experiment: Patients with coronary stenosis treated to prevent restenosis; type: in vivo
restenosis [4] = experiment: as above; type: in vivo; remark: listed apart in the source
Excerpt: BSO therapy is continued for one week.
A person with blue eyes and gray hair presents with chest pain. […] The patient undergoes balloon angioplasty and placement of a Palmaz-Schatz stent, which is P^32-implanted and coated with a cyclodextran polymer to which BSO is attached by an ester linkage.
A patient similar to the one described above undergoes balloon angioplasty and placement of a Palmaz-Schatz stent which is coated with cyclodextran polymer to which ethyl maleate is attached by an ester linkage. […]
A person with restenosis six months post angioplasty has a Palmaz-Schatz stent placed. The stent is coated with a porous polymer containing 10% of the siderophore ferrioxamine B and 0.1% each of interleukin-1 and interferon-gamma. The latter agents induce the local expression of the inducible isoform of nitric oxide synthase. […]

[5] = test system: Mycobacterium tuberculosis; conditions: in vivo
[6] = molecular target: T1, gamma-glutamylcysteinyl synthetase (gamma-GCS) (Rattus norvegicus, UniProt P19468); conditions: mammalian systems, literature; cited from earlier work
T1 sequence (P19468 1-637): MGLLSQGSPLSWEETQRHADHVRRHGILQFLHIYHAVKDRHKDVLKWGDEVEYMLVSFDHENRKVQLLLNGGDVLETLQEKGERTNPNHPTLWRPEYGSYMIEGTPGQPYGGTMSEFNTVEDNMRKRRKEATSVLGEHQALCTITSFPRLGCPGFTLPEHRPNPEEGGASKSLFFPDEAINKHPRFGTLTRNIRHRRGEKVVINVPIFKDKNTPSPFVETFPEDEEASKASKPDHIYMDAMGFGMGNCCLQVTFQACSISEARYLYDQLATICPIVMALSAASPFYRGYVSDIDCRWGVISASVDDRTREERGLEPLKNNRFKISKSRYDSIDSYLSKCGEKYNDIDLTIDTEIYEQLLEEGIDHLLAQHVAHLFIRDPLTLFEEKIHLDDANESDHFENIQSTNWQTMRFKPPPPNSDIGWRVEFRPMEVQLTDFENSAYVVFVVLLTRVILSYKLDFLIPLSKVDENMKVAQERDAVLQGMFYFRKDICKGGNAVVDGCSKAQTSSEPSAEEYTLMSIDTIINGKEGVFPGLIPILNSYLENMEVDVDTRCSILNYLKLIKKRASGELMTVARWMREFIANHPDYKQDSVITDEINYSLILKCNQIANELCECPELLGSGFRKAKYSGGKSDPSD
T1 sequence (P48508 1-274 partner): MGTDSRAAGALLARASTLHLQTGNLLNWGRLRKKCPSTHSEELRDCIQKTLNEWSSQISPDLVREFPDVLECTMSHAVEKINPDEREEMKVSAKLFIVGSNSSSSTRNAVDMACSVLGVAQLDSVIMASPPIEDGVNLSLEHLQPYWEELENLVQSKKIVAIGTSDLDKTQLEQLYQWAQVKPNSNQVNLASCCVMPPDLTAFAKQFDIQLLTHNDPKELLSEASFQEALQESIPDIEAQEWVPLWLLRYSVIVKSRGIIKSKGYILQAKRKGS

glutamine synthetase = conditions: mammalian systems, literature; cited from earlier work
oral thrush = experiment: Patients with oral thrush; type: in vivo; conditions: 5 cc of 10 mM solution
Protocol: An immunocompromised person who is status-post recent chemotherapy develops oral thrush.
A person with leukemia develops oral thrush and is given 2 cc of 50 mM S-nitrosoglutathione, swish and spit, three times/day.
An immunocompromised person with HIV and a low CD4 count develops oral thrush. They are given 5 cc of a solution of 10 mM nitrate.

[7] = test system: mixed flora and gram-negativerods; experiment: Diabetic patient with infected skin ulcer; type: in vivo; conditions: topical cream with S-nitrosoglutathione, oxidized glutathione and dinitrophenacyl glutathione
Excerpt: A patient with diabetes develops a skin ulcer on the lower aspect of their left leg. Cultures grow mixed flora and gram-negativerods. A topical cream is applied that contains S-nitrosoglutathione, oxidized glutathione and the glutathione S-conjugate dinitrophenacyl glutathione.

[8] = 32P-implanted stent, S-nitrosocysteine and ethacrynic acid 50–200 mg twice a day p.o.
[9] = stent coated with porous polymer containing 10% ferrioxamine B and 0.1% each of interleukin-1 and interferon-gamma

For O=[N+]([O-])[O-].[Na+] [sodium nitrate], the clinical outcome (Salmonella) was “symptoms resolve in two days”.

In the case of N[C@@H](CSN=O)C(=O)O [S-nitrosocysteine], the “effect of pretreatment on later treatment” value ([1]; 0.2 mM pretreatment, 0.5 mM at two hours) is reported as “Induces Resistance to Later Treatment with Nitrosating Agent”, the bacterial growth ([1]; 0.5 mM added at two hours, with or without 0.2 mM pretreatment) is reported as “reduces rate of bacterial growth” and the clinical outcome (E. coli; 100 nmol/kg i.v. alone) is reported as “partial remission in their disease accompanied by mild hypotension”. The clinical outcome (E. coli; S-nitrosocysteine continued plus desferoximine 1 gm then 0.5 gm every 4 hr for two days) was “relief of hypotension and complete resolution of septicemia”, the clinical outcome [2] was “symptoms improve over a period of three weeks” and the clinical outcome (restenosis [3]; [8]) was “symptoms improve”. The clinical outcome (restenosis [3]; BSO-releasing polymer stent and S-nitrosocysteine 100 nmol/kg intracoronary infusion) was “follow-up angiogram shows no restenosis” and the clinical outcome (restenosis [3]; S-nitrosocysteine 100 nmol/kg six times a day for one week intracoronary, 32P-implanted stent) was “successfully prevents restenosis”.

For N[C@@H](Cc1ccc(N(CCCl)CCCl)cc1)C(=O)O [melphalan], the clinical outcome (restenosis [4]; stent coated with ONO-substituted polymer with 10% melphalan attached) was “clinical restenosis does not occur” and the clinical outcome ([5]; po) was “symptoms resolve”.

In the case of C[C@@H]1[C@H](O)[C@@H](C)/C=C/C=C/C=C/C=C/C=C/C=C/C=C/[C@H](O[C@@H]2O[C@H](C)[C@@H](O)[C@H](N)[C@@H]2O)C[C@@H]2O[C@](O)(C[C@@H](O)C[C@@H](O)[C@H](O)CC[C@@H](O)C[C@@H](O)CC(=O)O[C@H]1C)C[C@H](O)[C@H]2C(=O)O [amphotericin B], the adverse effects (Histoplasma capsulatum; 1 mg/day i.v., after one week) is reported as “elevated blood urea nitrogen level and other evidence of renal failure” and the clinical outcome (Histoplasma capsulatum; dose reduced to 0.5 mg/day) is reported as “no resolution of disease”.

For CCC(N)(CCS(C)(=N)=O)C(=O)O (racemic) [α-ethyl-DL-methionine-SR-sulfoximine], the “inhibition of gamma-GCS” value [6] is given as “did not significantly inhibit” and the “inhibition of glutamine synthetase” value (glutamine synthetase) is given as “inhibited”.

For CS(=N)(=O)CC[C@H](N)C(=O)O (stereo partly shown) [methionine sulfoximine], the “inhibition of gamma-GCS” value [6] is listed as “potently inhibits” and the “inhibition of glutamine synthetase” value (glutamine synthetase) is listed as “potently inhibits”.

In the case of CC(C[C@H](N)C(=O)O)SN=O (stereo partly drawn) [S-nitroso-gamma-methyl-L-homocysteine], the clinical outcome (E. coli; septicemia and urinary tract infection, α-ethyl BSO 4 mmol/kg four times a day p.o., S-nitroso-gamma-methyl-L-homocysteine 50 μg/kg i.v., gentamicin) is reported as “symptoms resolve and blood and urine cultures are negative for E. coli after two weeks”.

With CC[C@@H](CO)NCCN[C@@H](CC)CO [ethambutol] the adverse effects [5] was “loss of color vision and gastrointestinal intolerance”.

With O=[N+]([O-])O [nitrate] the clinical outcome (oral thrush) was “thrush resolves”.

For “interferon-gamma: cytokine inducing inducible nitric oxide synthase”, the clinical outcome (restenosis [4]; [9]) was “restenosis does not occur”.

For C=C(CC)C(=O)c1ccc(OCC(=O)O)c(Cl)c1Cl [ethacrynic acid], the clinical outcome (Salmonella) was “symptoms resolve in two days” and the clinical outcome (restenosis [3]; [8]) was “symptoms improve”.

In the case of interleukin-1, the clinical outcome (restenosis [4]; [9]) is reported as “restenosis does not occur”.

In the case of CCC[S@](=N)(=O)CCC(N)C(=O)O (mixture of isomers) [DL-prothionine-SR-sulfoximine], the “inhibition of gamma-GCS” value [6] is listed as “inhibited” and the “inhibition of glutamine synthetase” value (glutamine synthetase) is listed as “did not significantly inhibit”.

In the case of dinitrophenacyl glutathione, the clinical outcome [7] is reported as “culture of the ulcer becomes sterile over three days”.

With CN(C)c1ccc2nc3ccc(=[N+](C)C)cc-3sc2c1 [methylene blue] the “time to restored blood pressure” value (E. coli; nitrosated chloramphenicol 12.5 mg four times/day IV with methylene blue IV 5 mg/kg and fluid support) was 24 h.

With CCOC(=O)/C=C\C(=O)OCC [ethyl maleate] the clinical outcome (restenosis [4]; stent coated with cyclodextran polymer with ethyl maleate attached by ester linkage) was “clinical restenosis does not occur”.

For CC(=O)N([O-])CCCCCNC(=O)CCC(=O)N([O-])CCCCCNC(=O)CCC(=O)N([O-])CCCCCN.[Fe+3] [ferrioxamine B], the clinical outcome (E. coli; 10 mg/kg with IV ampicillin and gentamicin) was “does not develop the clinical syndrome of hypotension and organ failure” and the clinical outcome (restenosis [4]; [9]) was “restenosis does not occur”.
